The test relates to rabbit skeletal myofibrils (fast skeletal myofibrils). In words: Activation of fast skeletal myofibrils (PUMA assay, AC1.4). Type of test: biochemical. To be noted: calcium at pCa25, AC1.4 = concentration at which the compound increased the enzymatic activity. The protocol:
Preparation of fast skeletal myofibrils: Rabbit skeletal myofibrils were prepared based upon the method of Herrmann et al. (Biochem. 32(28):7255-7263(1993). Myofibrils were prepared from rabbit psoas muscle purchased from Pel-Freez Biologicals (Arkansas) within 2 days of ordering, stored on ice. Minced muscle was homogenized in 10 volumes of ice-cold “standard” buffer (50 mM Tris, pH 7.4, 0.1 M KOAc, 5 mM KCl, 2 mM dithiothreitol (DTT), 0.2 mM phenylmethylsulfonyl fluoride (PMSF), 10 μM leupeptin, 5 μM pepstatin, and 0.5 mM sodium azide) containing 5 mM ethylenediaminetetraacetic acid (EDTA) and 0.5% Triton X-100 using an Omni-Macro homogenizer. Myofibrils were recovered by low speed centrifugation (3000 rpm for 10 minutes) and washed 2 times in the Triton X-100 containing buffer to ensure removal of cellular membrane. Following the Triton washes, myofibrils were washed 3 times in “standard” buffer containing 2 mM magnesium acetate. A final wash in assay buffer (12 mM piperazine-1,4-bis(2-ethanesulfonic acid) (PIPES), pH 6.8, 60 mM KCl, 1 mM DTT) was performed and brought to 10% sucrose for flash freezing in liquid nitrogen and storage at −80° C.
Activation of Fast Skeletal Myofibrils: Fast fiber activators were identified by measuring the enzymatic activity of muscle myofibril preparations using the proprietary PUMA (trademark) (see, e.g., U.S. Pat. Nos. 6,410,254, 6,743,599, 7,202,051, and 7,378,254) assay system. Myofibril preparations consisted of rabbit skeletal muscle (approximately 90% fast fibers) that had been mechanically homogenized and washed with a detergent (Triton X-100) to remove cellular membranes. This preparation retained all of the sarcomeric components in a native conformation and the enzymatic activity was still regulated by calcium. Compounds were tested using a myofibril suspension and a level of calcium sufficient to increase enzymatic activity of the myofibrils to 25% of their maximal rate (termed pCa25). Enzymatic activity was tracked via a pyruvate kinase and lactate dehydrogenase-coupled enzyme system. This assay regenerates myosin-produced ADP into ATP by oxidizing NADH, producing an absorbance change at 340 nm. The buffering system was 12 mM PIPES, 2 mM MgCl2, 1 mM DTT at pH 6.8 (PM12 buffer). […] In Table 9, “Example Compound” refers to the compound labeled with the same number in Table 2.

Turning to `CC[C@H](C)[C@H]1C(=O)Nc2ccccc2[C@@H]2COC(=O)N12` (single isomer, unassigned) [Compound 36], the AC1.4 stood at 0.09 µM. Under `CC[C@H](C)[C@H]1C(=O)Nc2ccccc2[C@H](CO)N1C(N)=O` (single isomer, unassigned) [Compound 37] stands 0.26 µM.

As to `CC[C@H](C)[C@H]1C(=O)Nc2ccccc2[C@H](C)N1C(=O)c1cnn(C)c1` (single isomer, unassigned) [Compound 38], the AC1.4 was found to be 0.10 µM. With `CC[C@H](C)[C@H]1C(=O)Nc2ccccc2[C@H](C)N1C(N)=O` (single isomer, unassigned) [Compound 39], the AC1.4 was found to be 0.17 µM. `CC[C@H](C)[C@H]1C(=O)Nc2ccccc2[C@@H](C(=O)OC)N1C(=O)c1cnn(C)c1` (single isomer, unassigned) [Compound 321]: the AC1.4 is 0.12 µM. As to `CC[C@H](C)[C@H]1C(=O)Nc2ccccc2CN1c1nccc(=O)[nH]1` [Compound 3, (S)-3-((S)-sec-Butyl)-4-(6-oxo-1,6-dihydropyrimidin-2-yl)-1,3,4,5-tetrahydro-2H-benzo[e][1,4]diazepin-2-one], the AC1.4 was 0.09 µM. Then `CC[C@H](C)[C@H]1C(=O)Nc2ccccc2CN1c1nn[nH]n1` [Compound 4, (S)-3-((S)-sec-Butyl)-4-(2H-tetrazol-5-yl)-1,3,4,5-tetrahydro-2H-benzo[e][1,4]diazepin-2-one], with 0.21 µM; and `CC[C@H](C)[C@H]1C(=O)Nc2ccccc2CN1C(N)=O` [Compound 5, (S)-3-((S)-sec-Butyl)-2-oxo-1,2,3,5-tetrahydro-4H-benzo[e][1,4]diazepine-4-carboxamide], with 0.08 µM. `CC[C@H](C)[C@H]1C(=O)Nc2cncnc2CN1C(N)=O` [Compound 11, (S)-7-((S)-sec-Butyl)-6-oxo-5,6,7,9-tetrahydro-8H-pyrimido[5,4-e][1,4]diazepine-8-carboxamide]: the AC1.4 came out at 1.30 µM.

`CC[C@H](C)[C@H]1C(=O)Nc2cc(F)cnc2CN1C(N)=O` [Compound 13, (S)-3-((S)-sec-Butyl)-8-fluoro-2-oxo-1,2,3,5-tetrahydro-4H-pyrido[3,2-e][1,4]diazepine-4-carboxamide]: the AC1.4 stood at 1.03 µM. Under `CC[C@H](C)[C@H]1C(=O)Nc2ccccc2-c2cnc(O)n21` [Compound 14, (S)-5-((S)-sec-Butyl)-3-hydroxy-5H-benzo[f]imidazo[1,5-d][1,4]diazepin-6(7H)-one] stands 0.15 µM. With `CC[C@H](C)[C@H]1C(=O)Nc2ccccc2CN1C(C)=O` [Compound 15, (S)-4-Acetyl-3-((S)-sec-butyl)-1,3,4,5-tetrahydro-2H-benzo[e][1,4]diazepin-2-one], the AC1.4 worked out at 0.27 µM. Under `CC[C@H](C)[C@H]1C(=O)Nc2ccccc2CN1C(=O)c1cnn(CCO)c1` [Compound 16, (S)-3-((S)-sec-Butyl)-4-(1-(2-hydroxyethyl)-1H-pyrazole-4-carbonyl)-1,3,4,5-tetrahydro-2H-benzo[e][1,4]diazepin-2-one] stands 0.14 µM; under `CC[C@H](C)[C@H]1C(=O)Nc2ccccc2CN1C(=O)CN` [Compound 17, (S)-3-((S)-sec-Butyl)-4-glycyl-1,3,4,5-tetrahydro-2H-benzo[e][1,4]diazepin-2-one], 2.83 µM; under `CC[C@H](C)[C@H]1C(=O)Nc2ccccc2CN1C(=O)CO` [Compound 18, (S)-3-((S)-sec-Butyl)-4-(2-hydroxyacetyl)-1,3,4,5-tetrahydro-2H-benzo[e][1,4]diazepin-2-one], 0.31 µM. With `CC[C@H](C)[C@H]1C(=O)Nc2ccccc2CN1C(=N)N` [Compound 19, (S)-3-((S)-sec-Butyl)-2-oxo-1,2,3,5-tetrahydro-4H-benzo[e][1,4]diazepine-4-carboximidamide], the AC1.4 was found to be 0.13 µM. Then `CC[C@H](C)[C@H]1C(=O)Nc2ccccc2CN1C(=O)OC` [Compound 20, Methyl (S)-3-((S)-sec-butyl)-2-oxo-1,2,3,5-tetrahydro-4H-benzo[e][1,4]diazepine-4-carboxylate], with 0.25 µM; and `CC[C@H](C)[C@H]1C(=O)Nc2ccccc2CN1/C(=N/C#N)N(C)C` [Compound 21, (S,E)-3-((S)-sec-Butyl)-N′-cyano-N,N-dimethyl-2-oxo-1,2,3,5-tetrahydro-4H-benzo[e][1,4]diazepine-4-carboximidamide], with 0.18 µM.

Take `CC[C@H](C)[C@H]1C(=O)Nc2ccccc2CN1/C(N)=N/C(=O)OC` [Compound 22, Methyl ((E)-amino((S)-3-((S)-sec-butyl)-2-oxo-1,2,3,5-tetrahydro-4H-benzo[e][1,4]diazepin-4-yl)methylene)carbamate]: the AC1.4 stood at 0.07 µM. `CC[C@H](C)[C@H]1C(=O)Nc2ccccc2CN1c1nc(O)cc(=O)[nH]1` [Compound 23, (S)-3-((S)-sec-Butyl)-4-(4-hydroxy-6-oxo-1,6-dihydropyrimidin-2-yl)-1,3,4,5-tetrahydro-2H-benzo[e][1,4]diazepin-2-one]: the AC1.4 was found to be 0.16 µM. Consider `CC[C@H](C)[C@H]1C(=O)Nc2ccccc2CN1c1ncc(N)c(=O)[nH]1` [Compound 24, (S)-4-(5-Amino-4-hydroxypyrimidin-2-yl)-3-((S)-sec-butyl)-1,3,4,5-tetrahydro-2H-benzo[e][1,4]diazepin-2-one], for which the AC1.4 was determined as 0.08 µM.

As for `CC[C@H](C)[C@H]1C(=O)Nc2ccccc2CN1c1noc(=O)[nH]1` [Compound 25, 3-((S)-3-((S)-sec-Butyl)-2-oxo-1,2,3,5-tetrahydro-4H-benzo[e][1,4]diazepin-4-yl)-1,2,4-oxadiazol-5(4H)-one], the AC1.4 came to 0.12 µM. Under `CC[C@H](C)[C@H]1C(=O)Nc2ccccc2CN1S(C)(=O)=O` [Compound 26, (S)-3-((S)-sec-Butyl)-4-(methylsulfonyl)-1,3,4,5-tetrahydro-2H-benzo[e][1,4]diazepin-2-one] stands 0.78 µM. Consider `CC[C@H](C)[C@H]1C(=O)Nc2ccccc2CN1S(=O)(=O)N(C)C` [Compound 27, (S)-3-((S)-sec-Butyl)-N,N-dimethyl-2-oxo-1,2,3,5-tetrahydro-4H-benzo[e][1,4]diazepine-4-sulfonamide], for which the AC1.4 came out at 0.23 µM.

Turning to `CC(=O)N1Cc2ccccc2NC(=O)[C@@H]1C1CCCCC1` [Compound 28, (S)-4-acetyl-3-cyclohexyl-1,3,4,5-tetrahydro-2H-benzo[e][1,4]diazepin-2-one], the AC1.4 worked out at 0.28 µM. Under `NC(=O)N1Cc2ccccc2NC(=O)[C@@H]1C1CCCCC1` [Compound 29, (S)-3-Cyclohexyl-2-oxo-1,2,3,5-tetrahydro-4H-benzo[e][1,4]diazepine-4-carboxamide] stands 0.22 µM; under `CC[C@H](C)[C@H]1C(=O)Nc2ccccc2CN1c1c(N2CC(O)C2)c(=O)c1=O` [Compound 30, 3-((S)-3-((S)-sec-Butyl)-2-oxo-1,2,3,5-tetrahydro-4H-benzo[e][1,4]diazepin-4-yl)-4-(3-hydroxyazetidin-1-yl)cyclobut-3-ene-1,2-dione], 0.08 µM; under `CC[C@H](C)[C@H]1C(=O)Nc2ccccc2CN1C(=O)NC` [Compound 31, (S)-3-((S)-sec-Butyl)-N-methyl-2-oxo-1,2,3,5-tetrahydro-4H-benzo[e][1,4]diazepine-4-carboxamide], 0.21 µM.

As for `CC[C@H](C)[C@H]1C(=O)Nc2ccccc2CN1C(=O)C(N)=O` [Compound 33, 2-((S)-3-((S)-sec-Butyl)-2-oxo-1,2,3,5-tetrahydro-4H-benzo[e][1,4]diazepin-4-yl)-2-oxoacetamide], the AC1.4 stood at 1.14 µM. Turning to `CC[C@H](C)[C@H]1C(=O)Nc2ccccc2CN1c1nc(C)ns1` [Compound 34, (S)-3-((S)-sec-Butyl)-4-(3-methyl-1,2,4-thiadiazol-5-yl)-1,3,4,5-tetrahydro-2H-benzo[e][1,4]diazepin-2-one], the AC1.4 came to 0.09 µM. Then `CC[C@H](C)[C@H]1C(=O)Nc2ccccc2CN1c1nccs1` [Compound 35, (3S)-3-[(2S)-Butan-2-yl]-4-(1,3-thiazol-2-yl)-1,3,4,5-tetrahydro-2H-1,4-benzodiazepin-2-one], with 0.07 µM.

Turning to `CC[C@H](C)[C@H]1C(=O)Nc2ccccc2C(C(=O)NC)N1C(N)=O` (stereo partly drawn) [Compound 40, (3S)-3-((S)-sec-Butyl)-N^5-methyl-2-oxo-1,2,3,5-tetrahydro-4H-benzo[e][1,4]diazepine-4,5-dicarboxamide], the AC1.4 was 2.57 µM.

Source of the values: patent US12441691B2 (Cytokinetics, Inc., priority 2020, dated 2025).
